# ChEMBL document CHEMBL4004803, “Syntheses and antibacterial activity of soluble 9-bromo substituted indolizinoquinoline-5,12-dione derivatives” (Eur J Med Chem, 2017)
# How the values were obtained:
# [1] = test system: Staphylococcus aureus; assay: Antibacterial activity against methicillin-resistant Staphylococcus aureus 122045 clinical isolate after 20 to 24 hrs by two-fold microdilution method; type: functional
# [2] = test system: Staphylococcus aureus; assay: Antibacterial activity against methicillin-resistant Staphylococcus aureus 112106 clinical isolate after 20 to 24 hrs by two-fold microdilution method; type: functional
# [3] = test system: Staphylococcus aureus; assay: Antibacterial activity against methicillin-resistant Staphylococcus aureus 1024010 clinical isolate after 20 to 24 hrs by two-fold microdilution method; type: functional
# [4] = test system: Staphylococcus aureus; assay: Antibacterial activity against methicillin-resistant Staphylococcus aureus 109244 clinical isolate after 20 to 24 hrs by two-fold microdilution method; type: functional
# [5] = test system: Staphylococcus aureus; assay: Antibacterial activity against methicillin-resistant Staphylococcus aureus 1111047-1 clinical isolate after 20 to 24 hrs by two-fold microdilution method; type: functional
# [6] = test system: Staphylococcus aureus; assay: Antibacterial activity against methicillin-resistant Staphylococcus aureus GLH14 clinical isolate after 20 to 24 hrs by two-fold microdilution method; type: functional
# [7] = test system: Staphylococcus aureus; assay: Antibacterial activity against methicillin-resistant Staphylococcus aureus 110910-2 clinical isolate after 20 to 24 hrs by two-fold microdilution method; type: functional
# [8] = test system: Staphylococcus aureus; assay: Antibacterial activity against methicillin-resistant Staphylococcus aureus 1212057-1 clinical isolate after 20 to 24 hrs by two-fold microdilution method; type: functional
# [9] = test system: Staphylococcus aureus; assay: Antibacterial activity against methicillin-resistant Staphylococcus aureus 109016 clinical isolate after 20 to 24 hrs by two-fold microdilution method; type: functional
# [10] = test system: Staphylococcus aureus; assay: Antibacterial activity against methicillin-resistant Staphylococcus aureus 503025 clinical isolate after 20 to 24 hrs by two-fold microdilution method; type: functional
# [11] = test system: Staphylococcus aureus; assay: Antibacterial activity against methicillin-resistant Staphylococcus aureus 1024004-2 clinical isolate after 20 to 24 hrs by two-fold microdilution method; type: functional
# [12] = test system: Staphylococcus aureus; assay: Antibacterial activity against methicillin-resistant Staphylococcus aureus 1012029 clinical isolate after 20 to 24 hrs by two-fold microdilution method; type: functional
# [13] = test system: Staphylococcus aureus; assay: Antibacterial activity against methicillin-resistant Staphylococcus aureus 19950 clinical isolate after 20 to 24 hrs by two-fold microdilution method; type: functional
# [14] = test system: Staphylococcus aureus; assay: Antibacterial activity against methicillin-resistant Staphylococcus aureus 130031 clinical isolate after 20 to 24 hrs by two-fold microdilution method; type: functional
# [15] = test system: Staphylococcus aureus; assay: Antibacterial activity against methicillin-resistant Staphylococcus aureus 1101016 clinical isolate after 20 to 24 hrs by two-fold microdilution method; type: functional
# [16] = test system: Staphylococcus aureus; assay: Antibacterial activity against methicillin-resistant Staphylococcus aureus 121026 clinical isolate after 20 to 24 hrs by two-fold microdilution method; type: functional
# [17] = test system: Staphylococcus epidermidis; assay: Antibacterial activity against Staphylococcus epidermidis ATCC 12228 after 20 to 24 hrs by two-fold microdilution method; type: functional
# [18] = test system: Streptococcus pyogenes; assay: Antibacterial activity against Streptococcus pyogenes ATCC 19615 after 20 to 24 hrs by two-fold microdilution method; type: functional
# [19] = Solubility of the compound in water at 25 degC measured after shaking for 4 hrs by UV method; type: physicochemical
# [20] = test system: Staphylococcus aureus; assay: Antibacterial activity against methicillin-resistant Staphylococcus aureus 125025 clinical isolate after 20 to 24 hrs by two-fold microdilution method; type: functional
# [21] = test system: Staphylococcus aureus; assay: Antibacterial activity against methicillin-resistant Staphylococcus aureus 1128040 clinical isolate after 20 to 24 hrs by two-fold microdilution method; type: functional
# [22] = test system: Staphylococcus aureus; assay: Antibacterial activity against methicillin-resistant Staphylococcus aureus 121969 clinical isolate after 20 to 24 hrs by two-fold microdilution method; type: functional
# [23] = test system: Staphylococcus aureus; assay: Antibacterial activity against methicillin-resistant Staphylococcus aureus 3250299 clinical isolate after 20 to 24 hrs by two-fold microdilution method; type: functional
# [24] = test system: Staphylococcus aureus; assay: Antibacterial activity against methicillin-resistant Staphylococcus aureus 519028 clinical isolate after 20 to 24 hrs by two-fold microdilution method; type: functional
# [25] = test system: Staphylococcus aureus; assay: Antibacterial activity against methicillin-resistant Staphylococcus aureus 316038 clinical isolate after 20 to 24 hrs by two-fold microdilution method; type: functional
# [26] = test system: Staphylococcus aureus; assay: Antibacterial activity against methicillin-resistant Staphylococcus aureus 919205 clinical isolate after 20 to 24 hrs by two-fold microdilution method; type: functional
# [27] = test system: Staphylococcus aureus; assay: Antibacterial activity against methicillin-resistant Staphylococcus aureus 1103006 clinical isolate after 20 to 24 hrs by two-fold microdilution method; type: functional
# [28] = test system: Staphylococcus aureus; assay: Antibacterial activity against methicillin-resistant Staphylococcus aureus 215073 clinical isolate after 20 to 24 hrs by two-fold microdilution method; type: functional
# [29] = test system: Staphylococcus aureus; assay: Antibacterial activity against methicillin-resistant Staphylococcus aureus 1029025 clinical isolate after 20 to 24 hrs by two-fold microdilution method; type: functional
# [30] = test system: Staphylococcus aureus; assay: Antibacterial activity against methicillin-resistant Staphylococcus aureus 1108204 clinical isolate after 20 to 24 hrs by two-fold microdilution method; type: functional
# [31] = test system: Staphylococcus aureus; assay: Antibacterial activity against methicillin-resistant Staphylococcus aureus 502025 clinical isolate after 20 to 24 hrs by two-fold microdilution method; type: functional
# [32] = test system: Staphylococcus aureus; assay: Antibacterial activity against methicillin-resistant Staphylococcus aureus 110328-1 clinical isolate after 20 to 24 hrs by two-fold microdilution method; type: functional
# [33] = test system: Staphylococcus aureus; assay: Antibacterial activity against methicillin-resistant Staphylococcus aureus 12308 clinical isolate after 20 to 24 hrs by two-fold microdilution method; type: functional
# [34] = test system: Staphylococcus aureus; assay: Antibacterial activity against methicillin-resistant Staphylococcus aureus 1106003 clinical isolate after 20 to 24 hrs by two-fold microdilution method; type: functional
# [35] = test system: Staphylococcus aureus; assay: Antibacterial activity against methicillin-resistant Staphylococcus aureus 1214023 clinical isolate after 20 to 24 hrs by two-fold microdilution method; type: functional
# [36] = test system: Staphylococcus aureus; assay: Antibacterial activity against methicillin-resistant Staphylococcus aureus 305026 clinical isolate after 20 to 24 hrs by two-fold microdilution method; type: functional
# [37] = test system: Staphylococcus aureus; assay: Antibacterial activity against methicillin-resistant Staphylococcus aureus 1216052 clinical isolate after 20 to 24 hrs by two-fold microdilution method; type: functional
# [38] = test system: Staphylococcus aureus; assay: Antibacterial activity against methicillin-resistant Staphylococcus aureus 316031 clinical isolate after 20 to 24 hrs by two-fold microdilution method; type: functional
# [39] = test system: Staphylococcus aureus; assay: Antibacterial activity against methicillin-resistant Staphylococcus aureus 831024 clinical isolate after 20 to 24 hrs by two-fold microdilution method; type: functional
# [40] = test system: Staphylococcus aureus; assay: Antibacterial activity against methicillin-resistant Staphylococcus aureus 1023043 clinical isolate after 20 to 24 hrs by two-fold microdilution method; type: functional
# [41] = test system: Staphylococcus aureus; assay: Antibacterial activity against methicillin-resistant Staphylococcus aureus GLH15 clinical isolate after 20 to 24 hrs by two-fold microdilution method; type: functional
# [42] = test system: Staphylococcus aureus; assay: Antibacterial activity against methicillin-resistant Staphylococcus aureus 1211026 clinical isolate after 20 to 24 hrs by two-fold microdilution method; type: functional
# [43] = test system: Staphylococcus aureus; assay: Antibacterial activity against methicillin-resistant Staphylococcus aureus 518036 clinical isolate after 20 to 24 hrs by two-fold microdilution method; type: functional
# [44] = test system: Staphylococcus aureus; assay: Antibacterial activity against methicillin-resistant Staphylococcus aureus 122710-2 clinical isolate after 20 to 24 hrs by two-fold microdilution method; type: functional
# [45] = test system: Staphylococcus aureus; assay: Antibacterial activity against methicillin-resistant Staphylococcus aureus 214026 clinical isolate after 20 to 24 hrs by two-fold microdilution method; type: functional
# [46] = test system: Staphylococcus aureus; assay: Antibacterial activity against methicillin-resistant Staphylococcus aureus 110325 clinical isolate after 20 to 24 hrs by two-fold microdilution method; type: functional
# [47] = test system: Staphylococcus aureus; assay: Antibacterial activity against methicillin-resistant Staphylococcus aureus 20339 clinical isolate after 20 to 24 hrs by two-fold microdilution method; type: functional
smiles,measurement,setting,value
O=C1c2cccnc2C(=O)c2c1c(C(=O)OCCCCCCN1CCCCC1)c1ccc(Br)cn21,MIC,[1],0.031 µg/mL
same,MIC,[2],0.063 µg/mL
same,MIC,[3],0.063 µg/mL
same,MIC,[4],0.031 µg/mL
same,MIC,[5],0.25 µg/mL
same,MIC,[6],0.063 µg/mL
same,MIC,[7],0.016 µg/mL
same,MIC,[8],0.016 µg/mL
same,MIC,[9],0.031 µg/mL
same,MIC,[10],0.125 µg/mL
same,MIC,[11],0.063 µg/mL
same,MIC,[12],0.063 µg/mL
same,MIC,[13],0.063 µg/mL
same,MIC,[14],0.125 µg/mL
same,MIC,[15],0.063 µg/mL
same,MIC,[16],0.031 µg/mL
same,MIC,[17],≤ 0.0078 µg/mL
same,MIC,[18],2 µg/mL
same,solubility thermodynamic at 4 h,[19]; water,1980 µg/mL
same,MIC,[20],0.125 µg/mL
same,MIC,[21],0.063 µg/mL
same,MIC,[22],0.063 µg/mL
same,MIC,[23],0.063 µg/mL
same,MIC,[24],0.125 µg/mL
same,MIC,[25],0.031 µg/mL
same,MIC,[26],0.063 µg/mL
same,MIC,[27],> 16 µg/mL
same,MIC,[28],0.016 µg/mL
same,MIC,[29],0.063 µg/mL
same,MIC,[30],0.063 µg/mL
same,MIC,[31],0.063 µg/mL
same,MIC,[32],0.125 µg/mL
same,MIC,[33],0.063 µg/mL
same,MIC,[34],16 µg/mL
same,MIC,[35],≤ 0.0078 µg/mL
same,MIC,[36],≤ 0.0078 µg/mL
same,MIC,[37],> 16 µg/mL
same,MIC,[38],0.125 µg/mL
same,MIC,[39],0.063 µg/mL
same,MIC,[40],0.125 µg/mL
same,MIC,[41],0.063 µg/mL
same,MIC,[42],0.031 µg/mL
same,MIC,[43],0.125 µg/mL
same,MIC,[44],0.031 µg/mL
same,MIC,[45],≤ 0.0078 µg/mL
same,MIC,[46],0.031 µg/mL
same,MIC,[47],0.125 µg/mL
O=C1c2cccnc2C(=O)c2c1c(C(=O)OCCCCCCN1CCOCC1)c1ccc(Br)cn21,MIC,[1],≤ 0.0078 µg/mL
same,MIC,[2],≤ 0.0078 µg/mL
same,MIC,[3],≤ 0.0078 µg/mL
same,MIC,[4],≤ 0.0078 µg/mL
same,MIC,[5],≤ 0.0078 µg/mL
same,MIC,[6],≤ 0.0078 µg/mL
same,MIC,[7],≤ 0.0078 µg/mL
same,MIC,[8],≤ 0.0078 µg/mL
same,MIC,[9],≤ 0.0078 µg/mL
same,MIC,[10],≤ 0.0078 µg/mL
same,MIC,[11],≤ 0.0078 µg/mL
same,MIC,[12],≤ 0.0078 µg/mL
same,MIC,[13],≤ 0.0078 µg/mL
same,MIC,[14],≤ 0.0078 µg/mL
same,MIC,[15],≤ 0.0078 µg/mL
same,MIC,[16],≤ 0.0078 µg/mL
same,MIC,[17],≤ 0.0078 µg/mL
same,MIC,[18],2 µg/mL
same,solubility,"[19]; buffer, 4 h",Insoluble
same,MIC,[20],≤ 0.0078 µg/mL
same,MIC,[21],≤ 0.0078 µg/mL
same,MIC,[22],≤ 0.0078 µg/mL
same,MIC,[23],≤ 0.0078 µg/mL
same,MIC,[24],≤ 0.0078 µg/mL
same,MIC,[25],≤ 0.0078 µg/mL
same,MIC,[26],≤ 0.0078 µg/mL
same,MIC,[27],> 16 µg/mL
same,MIC,[28],≤ 0.0078 µg/mL
same,MIC,[29],≤ 0.0078 µg/mL
same,MIC,[30],≤ 0.0078 µg/mL
same,MIC,[31],≤ 0.0078 µg/mL
same,MIC,[32],≤ 0.0078 µg/mL
same,MIC,[33],≤ 0.0078 µg/mL
same,MIC,[34],> 16 µg/mL
same,MIC,[35],≤ 0.0078 µg/mL
same,MIC,[36],≤ 0.0078 µg/mL
same,MIC,[37],16 µg/mL
same,MIC,[38],≤ 0.0078 µg/mL
same,MIC,[39],≤ 0.0078 µg/mL
same,MIC,[40],≤ 0.0078 µg/mL
same,MIC,[41],≤ 0.0078 µg/mL
same,MIC,[42],≤ 0.0078 µg/mL
same,MIC,[43],≤ 0.0078 µg/mL
same,MIC,[44],≤ 0.0078 µg/mL
same,MIC,[45],≤ 0.0078 µg/mL
same,MIC,[46],≤ 0.0078 µg/mL
same,MIC,[47],≤ 0.0078 µg/mL
